The results in this text go back to the supplement of paper PMC10307832.

Experiment in all cases: relative viability (nuclei count vs DMSO), 5 days (fraction); higher = more cells survive
Compound in test [1]: CC1=CC=C(C=C1)C(=O)CN2C3=C(CCCC3)SC2=N [Pifithrin_alpha] + C[C@@H](Oc1cc(-c2cnn(C3CCNCC3)c2)cnc1N)c1c(Cl)ccc(F)c1Cl [Crizotinib] (partner 1 µM)
A digest of the protocol: (§1)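 Lung cancer cell lines, seeded in 1536-well plates, were treated the following day by pin tool with a single drug or with five library-drug doses (not always all listed) in √10 steps on top of a fixed anchor-drug dose. Cells were fixed and nuclei stained in one step after 5 days, and nuclei were counted. Relative viability is the nuclei count for treated wells divided by that for vehicle wells, reported as medians of duplicate plates.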

Compound in test [2]: CC1=CC=C(C=C1)C(=O)CN2C3=C(CCCC3)SC2=N [Pifithrin_alpha] + Nc1ncn([C@H]2C[C@H](O)[C@@H](CO)O2)c(=O)n1 [Decitabine] (partner 2 µM)
A digest of the protocol: as §1

Compound in test [3]: Nc1nc(Nc2ccc3c(c2)CC[C@@H](N2CCCC2)CC3)nn1-c1cc2c(nn1)-c1ccccc1CCC2 [Bemcentinib] + COc1cc2c(Oc3ccc(NC(=O)C4(C(=O)Nc5ccc(F)cc5)CC4)cc3F)ccnc2cc1OCCCN1CCOCC1 [Foretinib] (partner 0.25 µM)
A digest of the protocol: as §1

Compound in test [4]: Nc1nc(Nc2ccc3c(c2)CC[C@@H](N2CCCC2)CC3)nn1-c1cc2c(nn1)-c1ccccc1CCC2 [Bemcentinib] + Nc1ncn([C@H]2C[C@H](O)[C@@H](CO)O2)c(=O)n1 [Decitabine] (partner 2 µM)
A digest of the protocol: as §1

Turning to NCI-H650, the relative viability came to 0.671 in test [1] (first compound 3.162 µM); 0.659 in test [1] (first compound 10 µM); 0.434 in test [1] (first compound 31.62 µM); 0.743 in test [1] (first compound 100 µM); 0.323 in test [2] (first compound 3.162 µM); 0.335 in test [2] (first compound 10 µM). The relative viability was 0.235 in test [2] (first compound 31.62 µM); 0.275 in test [2] (first compound 100 µM); 0.975 in test [3] (first compound 0.04 µM); 1.16 in test [3] (first compound 0.1265 µM); 1.04 in test [3] (first compound 0.4 µM); 1.02 in test [3] (first compound 1.265 µM). Further, the relative viability was determined as 1.05 in test [3] (first compound 4 µM); 0.269 in test [4] (first compound 0.04 µM); 0.301 in test [4] (first compound 0.1265 µM); 0.282 in test [4] (first compound 0.4 µM); 0.294 in test [4] (first compound 1.265 µM); 0.347 in test [4] (first compound 4 µM).
